Measurements reported in patent publication US20140249135A1, “PIM KINASE INHIBITORS AND METHODS OF THEIR USE” (NOVARTIS AG, priority 2007, published 2014).
Where two headings read alike, the source gives them in different places.

Experiments:
Pim1 kinase = Pim1 kinase (Homo sapiens, UniProt P11309); assay: Pim1 ATP depletion assay; type: biochemical; conditions: Pim1 ATP depletion assay;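 note: Luciferase-luciferin luminescence readout of residual ATP after PIM1 transfers phosphate to a peptide substrate, 40 µM ATP added, reaction run to roughly half ATP consumption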
Chain of Pim1 kinase (P11309 whole entry): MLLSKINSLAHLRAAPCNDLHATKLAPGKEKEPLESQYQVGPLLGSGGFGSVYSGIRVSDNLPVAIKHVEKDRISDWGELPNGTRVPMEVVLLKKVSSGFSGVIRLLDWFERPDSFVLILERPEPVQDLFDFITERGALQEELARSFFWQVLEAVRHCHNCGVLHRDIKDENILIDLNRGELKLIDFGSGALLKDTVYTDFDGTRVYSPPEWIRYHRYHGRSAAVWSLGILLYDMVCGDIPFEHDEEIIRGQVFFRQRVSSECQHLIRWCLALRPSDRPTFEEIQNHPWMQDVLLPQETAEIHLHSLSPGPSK

Pim3 kinase = Pim3 kinase (Homo sapiens, UniProt Q86V86); assay: Pim3 ATP depletion assay; type: biochemical
Pim2 kinase = Pim2 kinase (Homo sapiens, UniProt Q9P1W9); assay: Pim2 ATP depletion assay; type: biochemical;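 note: Luciferase-based luminescent readout of ATP remaining after PIM2 phosphorylates a BAD peptide, final 5 nM enzyme, 4 µM ATP, 10 µM peptide, 2.5% DMSO, run to roughly half ATP consumption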
Chain of Pim2 kinase (Q9P1W9 whole entry): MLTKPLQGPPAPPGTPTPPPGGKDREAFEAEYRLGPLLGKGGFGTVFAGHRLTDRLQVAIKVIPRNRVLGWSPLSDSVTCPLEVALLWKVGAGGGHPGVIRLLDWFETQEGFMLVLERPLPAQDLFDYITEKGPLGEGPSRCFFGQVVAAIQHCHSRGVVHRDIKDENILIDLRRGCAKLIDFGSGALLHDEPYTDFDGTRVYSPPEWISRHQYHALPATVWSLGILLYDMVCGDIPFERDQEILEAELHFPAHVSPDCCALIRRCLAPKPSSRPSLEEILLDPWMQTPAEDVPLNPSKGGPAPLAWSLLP

HEL 92.1.7 cells = assay: Cell proliferation assay (CellTiter-Glo), HEL 92.1.7; type: cell-based; conditions: Homo sapiens, read-out: EC50 (μM) HEL 92.1.7
Experimental: HEL 92.1.7 cells (ATTC No. TIB-180, an erythroleukemia line derived from malignant peripheral blood), MV4-11 cells (ATCC No. CRL-9591, a human acute monocytic leukemia line) and PC3 cells (ATCC No. CRL-1435, a human prostatic adenocarcinoma line) were cultured in RPMI1640 supplemented with 10% FBS, sodium pyruvate and antibiotics. Cells were plated in the same medium at a density of 1000 cells per well into 96 well tissue culture plates, with outside wells vacant, on the day of assay.
Test compounds supplied in DMSO were diluted into DMSO at 500 times the desired final concentrations before dilution into culture media to 2 times final concentrations. Equal volumes of 2× compounds were added to the cells in 96 well plates and incubated at 37° C. for 3 days.
After 3 days plates were equilibrated to room temperature and equal volume of CellTiter-Glow Reagent (Promega) was added to the culture wells. The plates were agitated briefly and luminescent signal was measured with luminometer. The percent inhibition of the signal seen in cells treated with DMSO alone vs. cells treated with control compound was calculated and used to determine EC50 values (i.e., the concentration of a test compound that is required to obtain 50% of the maximum effect in the cells) for tested compounds, as shown in Example 763.

KDR kinase = KDR kinase (Homo sapiens, UniProt P35968); assay: KDR AlphaScreen assay; conditions: KDR IC50 (μM)
Chain of KDR kinase (P35968 20-1356): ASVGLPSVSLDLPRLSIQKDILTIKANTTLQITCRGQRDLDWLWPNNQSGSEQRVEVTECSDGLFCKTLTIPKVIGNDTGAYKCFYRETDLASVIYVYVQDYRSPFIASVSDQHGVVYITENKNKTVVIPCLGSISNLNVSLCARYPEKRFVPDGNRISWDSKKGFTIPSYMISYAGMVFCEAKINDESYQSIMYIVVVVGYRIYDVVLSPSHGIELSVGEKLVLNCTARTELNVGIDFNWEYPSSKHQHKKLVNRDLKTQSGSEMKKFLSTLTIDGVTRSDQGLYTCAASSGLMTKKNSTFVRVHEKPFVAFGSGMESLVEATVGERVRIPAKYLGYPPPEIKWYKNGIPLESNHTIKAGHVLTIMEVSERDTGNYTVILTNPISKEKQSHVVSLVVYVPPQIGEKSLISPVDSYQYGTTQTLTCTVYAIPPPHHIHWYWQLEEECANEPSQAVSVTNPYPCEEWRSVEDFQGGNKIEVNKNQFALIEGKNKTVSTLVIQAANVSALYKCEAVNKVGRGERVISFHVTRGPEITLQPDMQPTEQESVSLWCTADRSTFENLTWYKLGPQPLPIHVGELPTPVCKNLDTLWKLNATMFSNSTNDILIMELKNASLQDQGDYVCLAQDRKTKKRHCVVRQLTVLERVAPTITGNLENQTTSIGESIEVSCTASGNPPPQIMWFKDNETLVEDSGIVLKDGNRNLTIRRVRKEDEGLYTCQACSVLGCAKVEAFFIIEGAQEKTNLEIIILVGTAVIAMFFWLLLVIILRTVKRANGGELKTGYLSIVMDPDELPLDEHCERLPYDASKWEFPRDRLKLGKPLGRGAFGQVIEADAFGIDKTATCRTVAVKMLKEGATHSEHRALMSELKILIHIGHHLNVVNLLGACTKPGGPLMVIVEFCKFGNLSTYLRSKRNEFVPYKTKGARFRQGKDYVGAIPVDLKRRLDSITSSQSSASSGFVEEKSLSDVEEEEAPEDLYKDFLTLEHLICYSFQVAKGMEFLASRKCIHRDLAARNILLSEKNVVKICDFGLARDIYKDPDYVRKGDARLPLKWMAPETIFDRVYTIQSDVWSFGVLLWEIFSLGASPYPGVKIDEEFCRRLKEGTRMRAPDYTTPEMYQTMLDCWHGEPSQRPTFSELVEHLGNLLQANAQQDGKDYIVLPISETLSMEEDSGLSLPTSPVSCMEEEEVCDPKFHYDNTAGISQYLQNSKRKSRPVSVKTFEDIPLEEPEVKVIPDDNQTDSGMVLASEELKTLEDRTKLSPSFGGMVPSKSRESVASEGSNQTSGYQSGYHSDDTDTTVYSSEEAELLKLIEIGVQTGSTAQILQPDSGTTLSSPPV

[1] = biological target: T1, human full length PKCE enzyme (Homo sapiens, UniProt Q02156); assay: In vitro PKCE assay; type: biochemical; conditions: 10 nM enzyme, 40 uM peptide substrate, 20 uM ATP, KinaseGlo Plus readout; read-out: PKCε IC50
T1 construct: human full length PKCE enzyme purchased from InVitrogen; purchased InVitrogen
T1 sequence (Q02156 1-737): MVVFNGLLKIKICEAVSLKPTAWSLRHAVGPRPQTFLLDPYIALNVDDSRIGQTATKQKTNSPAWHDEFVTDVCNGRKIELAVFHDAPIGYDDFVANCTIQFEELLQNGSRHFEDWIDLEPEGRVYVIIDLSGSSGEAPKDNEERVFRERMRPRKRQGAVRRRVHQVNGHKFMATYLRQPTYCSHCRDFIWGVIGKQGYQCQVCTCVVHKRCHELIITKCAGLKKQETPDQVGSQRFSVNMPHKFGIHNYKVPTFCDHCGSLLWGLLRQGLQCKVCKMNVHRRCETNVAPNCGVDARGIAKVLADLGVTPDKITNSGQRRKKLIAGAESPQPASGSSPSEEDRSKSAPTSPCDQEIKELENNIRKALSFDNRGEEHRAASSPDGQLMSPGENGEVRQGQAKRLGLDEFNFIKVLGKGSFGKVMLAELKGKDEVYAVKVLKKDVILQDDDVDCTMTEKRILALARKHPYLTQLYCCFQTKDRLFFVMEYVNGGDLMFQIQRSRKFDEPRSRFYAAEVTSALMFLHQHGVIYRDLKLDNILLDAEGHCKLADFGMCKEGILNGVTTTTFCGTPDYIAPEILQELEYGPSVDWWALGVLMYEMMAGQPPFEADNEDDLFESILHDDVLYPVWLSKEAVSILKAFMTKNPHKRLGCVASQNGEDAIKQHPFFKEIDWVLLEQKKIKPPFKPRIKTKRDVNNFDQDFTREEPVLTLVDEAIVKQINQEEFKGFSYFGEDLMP

IC50 (Pim1 kinase; read-out: IC50 (μM) PIM1) [µM]	IC50 (Pim3 kinase; read-out: IC50 (μM) PIM3) [µM]	IC50 (Pim2 kinase; read-out: IC50 (μM) PIM2) [µM]	IC50 (KDR kinase) [µM]	IC50 [1] [nM]	IC50 (Pim1 kinase; read-out: PIM1 IC50) [µM]	IC50 (Pim3 kinase; read-out: PIM3 IC50) [µM]	IC50 (Pim2 kinase; read-out: PIM2 IC50) [µM]	SMILES	EC50 (HEL 92.1.7 cells) [µM]
< 1	< 1	< 1	–	–	–	–	–	Cc1cccc(C)c1-c1ccc(N)c(C(=O)Nc2cnccc2N2CCC[C@H](N)C2)n1 [Example 426, 3-amino-6-(2,6-dimethyl-phenyl)-pyridine-2-carboxylic acid ((S)-3-amino-3,4,5,6-tetra-hydro-2H-[1,4′]bipyridinyl-3′-yl)-amideQ]	5 to 10
–	–	–	–	–	–	–	–	Cc1ccc(-c2ccc(N)c(C(=O)Nc3cnccc3N3CCC[C@H](N)C3)n2)c(F)c1 [Example 432, 3-amino-6-(2-fluoro-4-methyl-phenyl)-pyridine-2-carboxylic acid ((S)-3-amino-3,4,5,6-tetra-hydro-2H-[1,4′]bipyridinyl-3′-yl)-amide]	1 to 5
< 1	< 1	< 1	< 1	< 1000	–	–	–	Nc1ncc(Br)nc1C(=O)Nc1[nH]c(=O)ncc1N1CCCCC1 [Example 132, 3-amino-6-bromo-N-(2-oxo-5-piperidin-1-yl-2,3-dihydro-pyrimidin-4-yl)pyrazine-2-carboxamide]	–
1 to 10	1 to 10	1 to 10	< 1	10000 to 25000	–	–	–	Nc1ncc(-c2ccccc2)nc1C(=O)Nc1cc(C(=O)c2ccccc2)ccc1N1CCCC(N)C1 (centres unmarked) [Example 435, 3-amino-6-phenyl-pyrazine-2-carboxylic acid [2-(3-amino-piperidin-1-yl)-5-benzoyl-phenyl]-amide]	–
< 1	< 1	10 to 25	> 25	1000 to 10000	–	–	–	Nc1nccnc1C(=O)Nc1cc(C(F)(F)F)ccc1N1CCC(N)CC1 [Example 225, 3-amino-N-[2-(4-aminopiperidin-1-yl)-5-(trifluoromethyl)phenyl]-pyrazine-2-carboxamide]	–
1 to 10	1 to 10	> 25	1 to 10	1000 to 10000	–	–	–	Nc1nccnc1C(=O)Nc1cc(C(=O)c2ccccc2)ccc1N1CCC(N)CC1 [Example 233, 3-amino-pyrazine-2-carboxylic acid [2-(4-amino-piperidin-1-yl)-5-benzoyl-phenyl]-amide]	–
< 1	< 1	< 1	1 to 10	< 1000	–	–	–	Nc1ncc(-c2ccccc2F)nc1C(=O)Nc1ccccc1N1CCC(N)CC1 [Example 377, 3-amino-6-(2-fluoro-phenyl)-pyrazine-2-carboxylic acid [2-(4-amino-piperidin-1-yl)-phenyl]-amide]	–
< 1	< 1	< 1	1 to 10	< 1000	–	–	–	Nc1ncc(Br)nc1C(=O)Nc1cnccc1N1CCCCC1 [Example 119, 3-amino-6-bromo-N-(4-piperidin-1-ylpyridin-3-yl)pyrazine-2-carboxamide]	–
< 1	< 1	< 1	1 to 10	< 1000	–	–	–	COc1ccc(N2CCC(N)CC2)c(NC(=O)c2nc(Br)cnc2N)c1 [Example 211, 3-amino-N-[2-(4-aminopiperidin-1-yl)-5-methoxyphenyl]-6-bromopyrazine-2-carboxamide]	–
1 to 10	1 to 10	10 to 25	10 to 25	1000 to 10000	–	–	–	Nc1nccnc1C(=O)Nc1cc(C(=O)C2CC2)ccc1N1CCC(N)CC1 [Example 244, 3-amino-pyrazine-2-carboxylic acid [2-(4-amino-piperidin-1-yl)-5-cyclopropanecarbonyl-phenyl]-amide]	–
–	–	–	1 to 10	1000 to 10000	< 1	< 1	< 1	Nc1ccc(-c2cccnc2F)nc1C(=O)Nc1ccncc1N1CCCC(N)C1 (centres unmarked) [Example 552, 5-Amino-2′-fluoro-[2,3′]bi-pyridinyl-6-carboxylic acid (3-amino-3,4,5,6-tetrahydro-2H-[1,3′]bipyridinyl-4′-yl)-amide]	–
< 1	< 1	10 to 25	> 25	1000 to 10000	–	–	–	Cc1ccc(N2CCCC(N)C2)c(NC(=O)c2nccnc2N)c1 (centres unmarked) [Example 218, 3-amino-N-[2-(3-aminopiperidin-1-yl)-5-methylphenyl]pyrazine-2-carboxamide]	–
< 1	< 1	< 1	10 to 25	< 1000	–	–	–	COc1ccc(N2CCCC(N)C2)c(NC(=O)c2nc(Br)cnc2N)c1 (centres unmarked) [Example 212, 3-amino-N-[2-(3-aminopiperidin-1-yl)-5-methoxyphenyl]-6-bromopyrazine-2-carboxamide]	–
1 to 10	1 to 10	> 25	> 25	1000 to 10000	–	–	–	COc1ncc(-c2cnc(N)c(C(=O)Nc3ccccc3N3CCNCC3)n2)cn1 [Example 391, 3-amino-6-(2-methoxy-pyrimidin-5-yl)-pyrazine-2-carboxylic acid (2-piperazin-1-yl-phenyl)-amide]	–
< 1	1 to 10	1 to 10	1 to 10	< 1000	–	–	–	Nc1ncc(-c2ccoc2)nc1C(=O)Nc1ccccc1N1CCNCC1 [Example 384, 3-amino-6-furan-3-yl-pyrazine-2-carboxylic acid (2-piperazin-1-yl-phenyl)-amide]	–
< 1	< 1	< 1	< 1	< 1000	–	–	–	NC(=O)c1cccc(-c2cnc(N)c(C(=O)Nc3cnccc3N3CCCC(N)C3)n2)c1 (centres unmarked) [Example 369, 3-amino-6-(3-carbamoyl-phenyl)-pyrazine-2-carboxylic acid (3-amino-3,4,5,6-tetra-hydro-2H-[1,4′]bipyridinyl-3′-yl)-amide]	–
< 1	< 1	< 1	< 1	< 1000	–	–	–	NC(=O)c1cccc(-c2cnc(N)c(C(=O)Nc3cnccc3N3CCNCC3)n2)c1 [Example 361, 3-amino-6-(3-carbamoyl-phenyl)-pyrazine-2-carboxylic acid (4-piperazin-1-yl-pyridin-3-yl)-amide]	–
< 1	< 1	< 1	< 1	1000 to 10000	–	–	–	NCCC(=O)N1CCN(c2cnc(=O)[nH]c2NC(=O)c2nccnc2N)CC1 [Example 237, 3-amino-N-{5-[4-(3-amino-propanoyl)piperazin-1-yl]-2-oxo-2,3-dihydropyrimidin-4-yl}-pyrazine-2-carboxamide]	–
< 1	< 1	< 1	1 to 10	< 1000	–	–	–	Nc1ncc(Br)nc1C(=O)Nc1ccccc1N1CCCC(N)C1 (centres unmarked) [Example 204, 3-amino-N-[2-(3-aminopiperidin-1-yl)phenyl]-6-bromopyrazine-2-carboxamide]	–
1 to 10	1 to 10	> 25	10 to 25	1000 to 10000	–	–	–	Nc1ncc(-c2ccccc2Oc2ccccc2)nc1C(=O)Nc1ccccc1N1CCNCC1 [Example 387, 3-amino-6-(2-phenoxy-phenyl)-pyrazine-2-carboxylic acid (2-piperazin-1-yl-phenyl)-amide]	–
